The text below walks through data of PubChem BioAssay AID256 (DTP/NCI, 2004).

Several values for one entry are separate records, joined by “and”; a condition that tells them apart may be missing. Equal values may be shown once. Toxic doses and inconclusive results are not listed.

The subject of this assay is CD2F1 mice, L1210 leukemia ip, survival T/C. Nature of the assay: NCI In Vivo Anticancer Drug Screen. Data for tumor model L1210 Leukemia (intraperitoneal) in CD2F1 (CDF1) mice. The conditions noted are these: higher = longer survival. The gist of the method: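 Mice carrying a transplanted tumor received test compound or vehicle alone. The value is the measurement in the treated group divided by that in the vehicle-treated control group.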

[1] abbreviates: endpoint: mean survival time, dose: 100.0 mg/kg/injection, schedule: Q04DX003 (ip), vehicle: saline with Tween-80.
Where [2] appears, read: endpoint: mean survival time, dose: 200.0 mg/kg/injection, schedule: Q04DX003 (ip), vehicle: saline with Tween-80.
The mark [3] stands for this setting: endpoint: mean survival time, dose: 400.0 mg/kg/injection, schedule: Q04DX003 (ip), vehicle: saline with Tween-80.
The mark [4] stands for this setting: endpoint: mean survival time, dose: 100.0 mg/kg/injection, schedule: Q01DX009 (ip), vehicle: saline with Tween-80.
[5] abbreviates: endpoint: mean survival time, dose: 200.0 mg/kg/injection, schedule: Q01DX009 (ip), vehicle: saline with Tween-80.
The mark [6] stands for this setting: endpoint: median survival time, dose: 12.5 mg/kg/injection, schedule: Q01DX005 (ip), vehicle: water.
[7] abbreviates: endpoint: median survival time, dose: 25.0 mg/kg/injection, schedule: Q01DX005 (ip), vehicle: water.
[8] abbreviates: endpoint: median survival time, dose: 50.0 mg/kg/injection, schedule: Q01DX005 (ip), vehicle: water.

For `[NH-]C(CCC(N)=O)C(=O)O.[NH-]C(CCC(N)=O)C(=O)O.[Pt+2]` (configuration not stated), the T/C by setting is: (endpoint: mean survival time, dose: 3.13 mg/kg/injection, schedule: Q04DX003 (ip), vehicle: distilled water + Tween-80) 103 % of control; (endpoint: mean survival time, dose: 6.25 mg/kg/injection, schedule: Q04DX003 (ip), vehicle: distilled water + Tween-80) 104 % of control; (endpoint: mean survival time, dose: 12.5 mg/kg/injection, schedule: Q04DX003 (ip), vehicle: distilled water + Tween-80) 110 % of control; (endpoint: mean survival time, dose: 25.0 mg/kg/injection, schedule: Q04DX003 (ip), vehicle: distilled water + Tween-80) 110 % of control; (endpoint: mean survival time, dose: 50.0 mg/kg/injection, schedule: Q04DX003 (ip), vehicle: distilled water + Tween-80) 95 % of control; (endpoint: mean survival time, dose: 100.0 mg/kg/injection, schedule: Q04DX003 (ip), vehicle: distilled water + Tween-80) 104 % of control. In addition, the T/C (endpoint: mean survival time, dose: 200.0 mg/kg/injection, schedule: Q04DX003 (ip), vehicle: distilled water + Tween-80) is 98 % of control.

With `Cc1ccc2c(c1)C1(C)OC(C=CC1=O)O2` (configuration not stated), the T/C (endpoint: median survival time, dose: 3.12 mg/kg/injection, schedule: Q01DX005 (ip), vehicle: Klucel (hydroxypropylcellulose) (HPC)) is 106 % of control; the T/C (endpoint: median survival time, dose: 6.25 mg/kg/injection, schedule: Q01DX005 (ip), vehicle: Klucel (hydroxypropylcellulose) (HPC)) was 101 % of control; the T/C (endpoint: median survival time, dose: 12.5 mg/kg/injection, schedule: Q01DX005 (ip), vehicle: Klucel (hydroxypropylcellulose) (HPC)) is 105 % of control; the T/C (endpoint: median survival time, dose: 25.0 mg/kg/injection, schedule: Q01DX005 (ip), vehicle: Klucel (hydroxypropylcellulose) (HPC)) is 101 % of control and 105 % of control; the T/C (endpoint: median survival time, dose: 50.0 mg/kg/injection, schedule: Q01DX005 (ip), vehicle: Klucel (hydroxypropylcellulose) (HPC)) was 103 % of control.

Regarding `[Cl][Pt+2][Cl].[NH-]c1cc2ccccc2cc1[NH-]`, the T/C was 102 % of control (endpoint: mean survival time, dose: 2.5 mg/kg/injection, schedule: Q01DX009 (ip), vehicle: saline with Tween-80); 109 % of control (endpoint: mean survival time, dose: 5.0 mg/kg/injection, schedule: Q01DX009 (ip), vehicle: saline with Tween-80); 109 % of control (endpoint: mean survival time, dose: 10.0 mg/kg/injection, schedule: Q01DX009 (ip), vehicle: saline with Tween-80); 100 % of control and 112 % of control (endpoint: mean survival time, dose: 20.0 mg/kg/injection, schedule: Q01DX009 (ip), vehicle: saline with Tween-80); 105 % of control and 111 % of control (endpoint: mean survival time, dose: 40.0 mg/kg/injection, schedule: Q01DX009 (ip), vehicle: saline with Tween-80); 105 % of control (endpoint: mean survival time, dose: 80.0 mg/kg/injection, schedule: Q01DX009 (ip), vehicle: saline with Tween-80). Besides, the T/C was 106 % of control (endpoint: mean survival time, dose: 160.0 mg/kg/injection, schedule: Q01DX009 (ip), vehicle: saline with Tween-80) and 111 % of control (endpoint: mean survival time, dose: 320.0 mg/kg/injection, schedule: Q01DX009 (ip), vehicle: saline with Tween-80).

As for `NP(=O)(OCCC(=O)OCc1ccccc1)N(CCCl)CCCl` (configuration not stated), the T/C is, setting by setting: (endpoint: mean survival time, dose: 25.0 mg/kg/injection, schedule: Q01DX009 (ip), vehicle: Klucel (hydroxypropylcellulose) (HPC)) 97 % of control; (endpoint: mean survival time, dose: 50.0 mg/kg/injection, schedule: Q01DX009 (ip), vehicle: Klucel (hydroxypropylcellulose) (HPC)) 92 % of control; (endpoint: mean survival time, dose: 100.0 mg/kg/injection, schedule: Q01DX009 (ip), vehicle: Klucel (hydroxypropylcellulose) (HPC)) 91 % of control; (endpoint: mean survival time, dose: 125.0 mg/kg/injection, schedule: Q01DX001 (ip), vehicle: Klucel (hydroxypropylcellulose) (HPC)) 95 % of control; (endpoint: mean survival time, dose: 200.0 mg/kg/injection, schedule: Q01DX009 (ip), vehicle: Klucel (hydroxypropylcellulose) (HPC)) 94 % of control; (endpoint: mean survival time, dose: 250.0 mg/kg/injection, schedule: Q01DX001 (ip), vehicle: Klucel (hydroxypropylcellulose) (HPC)) 93 % of control. In addition, the T/C is, setting by setting: (endpoint: mean survival time, dose: 400.0 mg/kg/injection, schedule: Q01DX009 (ip), vehicle: Klucel (hydroxypropylcellulose) (HPC)) 97 % of control; (endpoint: mean survival time, dose: 500.0 mg/kg/injection, schedule: Q01DX001 (ip), vehicle: Klucel (hydroxypropylcellulose) (HPC)) 98 % of control; (endpoint: mean survival time, dose: 1000.0 mg/kg/injection, schedule: Q01DX001 (ip), vehicle: Klucel (hydroxypropylcellulose) (HPC)) 95 % of control.

`CN(C)C(=O)Nc1cccc(OP(=O)(N(C)C)N(C)C)c1`: the T/C was 103 % of control under setting [1], 97 % of control under setting [2] and 99 % of control under setting [3].

For the compound `CCC(=O)Nc1ccc(C)c(Cl)c1`, the T/C runs as follows: under setting [4], 95 % of control; under setting [1], 96 % of control; under setting [5], 95 % of control; under setting [2], 95 % of control; (endpoint: mean survival time, dose: 400.0 mg/kg/injection, schedule: Q01DX009 (ip), vehicle: saline with Tween-80) 104 % of control; under setting [3], 97 % of control.

In the case of `CCOC(=O)C(C)(C(=O)OCC)n1cnc2c1c(=O)n(C)c(=O)n2C`, the T/C (endpoint: mean survival time, dose: 100.0 mg/kg/injection, schedule: Q01DX005 (ip), vehicle: distilled water + Tween-80) is 100 % of control; the T/C (endpoint: mean survival time, dose: 200.0 mg/kg/injection, schedule: Q01DX005 (ip), vehicle: distilled water + Tween-80) is 102 % of control; the T/C (endpoint: mean survival time, dose: 400.0 mg/kg/injection, schedule: Q01DX005 (ip), vehicle: distilled water + Tween-80) is 107 % of control.

Take `CC(=O)COc1ccccc1NC(C)=O`: the T/C reads like this: under setting [1], 91 % of control; under setting [2], 102 % of control; under setting [3], 91 % of control.

As for `Clc1ccc(OCc2sc3ccc(Cl)cc3c2CN2CCCCC2)cc1`, the T/C is, setting by setting: (endpoint: mean survival time, dose: 25.0 mg/kg/injection, schedule: Q01DX009 (ip), vehicle: saline with Tween-80) 100 % of control; (endpoint: mean survival time, dose: 50.0 mg/kg/injection, schedule: Q01DX009 (ip), vehicle: saline with Tween-80) 97 % of control; under setting [4], 95 % of control.

Consider `N#CCc1c(C(N)=O)ncn1C1OC(COP(=O)(O)O)C(O)C1O` (configuration not stated), for which the T/C under setting [6] was 109 % of control; the T/C under setting [7] was 104 % of control; the T/C under setting [8] is 103 % of control; the T/C (endpoint: median survival time, dose: 100.0 mg/kg/injection, schedule: Q01DX005 (ip), vehicle: water) was 97 % of control; the T/C (endpoint: median survival time, dose: 200.0 mg/kg/injection, schedule: Q01DX005 (ip), vehicle: water) is 97 % of control.

Regarding `CCCCOC(=O)c1ccccc1`, the T/C is, setting by setting: under setting [4], 102 % of control; under setting [5], 104 % of control.

As for `N#Cc1ccc(NN=O)nc1`, the T/C is, setting by setting: (endpoint: median survival time, dose: 3.12 mg/kg/injection, schedule: Q01DX005 (ip), vehicle: water) 109 % of control; (endpoint: median survival time, dose: 6.25 mg/kg/injection, schedule: Q01DX005 (ip), vehicle: water) 120 % of control; under setting [6], 124 % of control; (endpoint: median survival time, dose: 15.0 mg/kg/injection, schedule: Q01DX005 (ip), vehicle: water) 152 % of control and 158 % of control; under setting [7], 164 % of control and 175 % of control; (endpoint: median survival time, dose: 41.66 mg/kg/injection, schedule: Q01DX005 (ip), vehicle: water) 191 % of control. In addition, the T/C runs as follows: under setting [8], 95 % of control; (endpoint: median survival time, dose: 69.4 mg/kg/injection, schedule: Q01DX005 (ip), vehicle: water) 118 % of control.
